The values that follow are results of earlier work, collected in patent US10987305B2, “Preparation of respirable zafirlukast particles” (Hovione Scientia Limited, priority 2015, dated 2021).

For data set [1] the following is noted: as disclosed in US 5,504,216 and related patents.
For data set [2] the following is noted: as disclosed in US 5,504,216 and related patents. The source holds these as a separate data set.

`COc1cc(C(=O)NS(=O)(=O)c2ccccc2C)ccc1Cc1cn(C)c2ccc(NC(=O)OC3CCCC3)cc12` [amorphous form, zafirlukast]: the Physical stability entry in data set [1] was “less physically stable”. In addition, in data set [2], the Bioavailability result is reported as “most bioavailable”.
On to `COc1cc(C(=O)NS(=O)(=O)c2ccccc2C)ccc1Cc1cn(C)c2ccc(NC(=O)OC3CCCC3)cc12` [crystalline anhydrous form, zafirlukast], for which, in data set [1], the Physical stability result is listed as “physically stable”. For the same molecule, the Bioavailability entry in data set [2] is “relatively poor bioavailability”.
Turning to `COc1cc(C(=O)NS(=O)(=O)c2ccccc2C)ccc1Cc1cn(C)c2ccc(NC(=O)OC3CCCC3)cc12` [crystalline monohydrate form, zafirlukast], the Physical stability result in data set [1] is on record as “physically stable”. For the same molecule, the Bioavailability result in data set [2] is recorded as “relatively poor bioavailability”.
